{"source": "patent US20220162238A1", "about": "“FATTY ACID COMPOSITION AND APPLICATION THEREOF” (SICHUAN GOWELL PHARMACEUTICAL CO., LTD., priority 2019, published 2022)", "key": {"[1]": {"test_system": "IBD mouse model with DSS", "assay": "DSS-induced IBD mouse model (Example 14)", "format": "in vivo, C57BL/6J mice", "settings": "500 mg/kg intragastrically once a day; 6 days of DSS modeling", "method": "(§1) (1) Normal control group (control group): 0.5 wt % sodium carboxymethyl cellulose was administered intragastrically.\n(§2) (2) IBD model group (model group): 0.5 wt % sodium carboxymethyl cellulose was administered intragastrically.\n(3) Positive drug sulfasalazine group (SASP group): sulfasalazine enteric-coated tablets; dosage: 500 mg/kg, prepared with 0.5 wt % sodium carboxymethyl cellulose; stored at 4° C. and administered intragastrically once a day.\nThe mice in the model group and the administration groups were constructed as an IBD mouse model with DSS (MP, CA9011-18-1, US, keeping away from light) by entrusting to the Institute of Materia Medica, Chinese Academy of Medical Sciences. The mice in the normal control group were not treated. The normal control group and model group were administered with 0.5 wt % sodium carboxymethyl cellulose intragastrically, once a day. The SASP group and the test group were administered intragastrically according to the above experimental scheme, once a day. […] The animals in each group were sacrificed, and each evaluation indicator of colitis (see the section of Experiment results) was tested, and the anti-IBD pharmacodynamic activity of each test sample was evaluated comprehensively."}, "[2]": {"test_system": "DSS-induced IBD mouse model", "assay": "DSS-induced IBD mouse model (Example 10)", "format": "in vivo, C57BL/6J mice", "settings": "500 mg/kg intragastrically once a day", "method": "1. Animals: C57BL/6J mice, male (18-20 g); 10 mice per group; purchased from Beijing Huafukang Biotechnology Co., Ltd.; license number: SCXK (Beijing) 2014-0004\nas §1\n(2) IBC model group (model group): 0.5 wt % sodium carboxymethyl cellulose was administered intragastrically.\n(3) Positive drug sulfasalazine group (SASP group): Shanghai Sinepharm Factory Co., Ltd. (batch number: 036151102); dosage: 500 mg/kg, prepared with 0.5 wt % sodium carboxymethyl cellulose, stored at 4° C., administered intragastrically once a day.\n(4) Test group: the fatty acid compositions of Examples 1 to 9, dosage: 500 mg/kg, prepared with 0.5 wt % sodium carboxymethyl cellulose, stored at 4° C., administered intragastrically once a day.\nFor the convenience of experimental operation, two experiments were conducted. The fatty acid compositions of Examples 1 to 5 were used for the first experiment; the fatty acid compositions of Examples 6 to 9 were used for the second experiment. Both experiments were operated according to the following methods. C57BL/6J mice were adaptively fed in an SPF animal room (laboratory animal license number: SYXK (Beijing) 2014-0023) for one week, and then randomly grouped. The mice in the model group and the administration groups were constructed as an IBC mouse model with DSS (MP, CA9011-18-1, US) by entrusting to the Institute of Materia Medica, Chinese Academy of Medical Sciences. The mice in the normal control group were not treated. The normal control group (control group) and model group (model group) were administered with 0.5 wt % sodium carboxymethyl cellulose intragastrically, once a day, with an administration volume of 10 mL/kg. The SASP group and the test group were administered intragastrically according to the above experimental scheme, once a day. […] The animals in each group were sacrificed, and each evaluation indicator of colitis was tested (see the section of Experiment results), and the anti-IBD pharmacodynamic activity of each test sample was evaluated comprehensively.\nThe DAI scoring criteria were as follows:\nThe histopathology scoring criteria table was as follows: […]"}, "[3]": {"test_system": "OXZ-induced mouse IBD model", "assay": "OXZ-induced mouse IBD model (Example 16)", "format": "in vivo, Balb/c mice", "settings": "500 mg/kg intragastrically once a day, 6 days", "method": "1. Animals: Balb/c mice, male (20-22 g); 10 mice per group.\nas §1, §2\n(3) Positive drug sulfasalazine group (SASP group): Dosage: 500 mg/kg, prepared with 0.5 wt % sodium carboxymethyl cellulose; stored at 4° C. and administered intragastrically once a day.\nBalb/c mice were adaptively fed in an SPF animal room for one week and then grouped randomly. The mice in the model group and the administration groups were constructed as an IBD mouse model with OXZ by entrusting to the Institute of Materia Medica, Chinese Academy of Medical Sciences. Then, the administration was performed for 6 consecutive days; the normal control group was not treated. The normal control group and the model group were intragastrically administered with 0.5 wt % sodium carboxymethylcellulose, once a day. SASP group and test groups 1 to 2 were administrated intragastrically according to the above experimental scheme, once a day. Animals in each group were sacrificed on day 6 of modeling, and various indicators related to colitis were tested (see the section of Experimental results)."}, "[4]": {"test_system": "TNBS-induced rat IBD model", "assay": "TNBS-induced rat IBD model (Example 15)", "format": "in vivo, SD rats", "method": "(1) Normal control group (control group): 0.5 wt % sodium carboxymethyl cellulose (CMC-Na) was administered intragastrically.\nas §2\n(3) Positive drug sulfasalazine group (SASP group): sulfasalazine enteric-coated tablets, dosage: 600 mg/kg, prepared with 0.5% sodium carboxymethyl cellulose; administered intragastrically once a day.\n3. Experimental method: After being fasted but water allowed for about 24 hours, rats in each group were anesthetized by intraperitoneal injection of 3% sodium pentobarbital solution, and a plastic tube with a diameter of 2 mm and a length of about 12 cm was gently inserted into the rat body via the anus for about 8 cm deep. The ethanol solution containing TNBS was slowly injected with the dose of TNBS 75 mg/kg and the administration volume of 3 mL/kg body weight, and then about 0.1 mL of air was injected to discharge the medicine remained in the plastic tube into intestine. After the administration, the plastic tube was slowly pulled out, the anus was pinched with hand, and the tail of the rat was lifted and kept upside down for about 30 s, so that the modeling agent can fully penetrate into the intestinal cavity of the rat. The normal control group was injected with the same amount of normal saline, Based on the body weight thereof, 75 TNBS modeled rats were randomly divided into model group, positive drug group (sulfasalazine 600 mg/kg body weight), test groups 1 to 3, 15 rats/group, and a normal control group was set up, in which 15 rats were included. On the second day after modeling, the corresponding test samples were administered intragastrically. The normal control group and the model group were administered with 0.5 wt % CMC-Na once a day for 5 consecutive days. DAI activity score was performed on days 1 and 3 of administration and 24 hours after the last administration. Intestinal mucosal damage was observed 24 hours after the last administration for CMDI scoring. The colon tissue was taken for histopathological examination."}, "[5]": {"settings": "SASP 600 mg/kg, Example 4 at 150, 300 and 600 mg/kg"}}, "note": "Marks after values point to notes of the source that are not given here."}
{"compound": "O=C(O)c1cc(/N=N/c2ccc(S(=O)(=O)Nc3ccccn3)cc2)ccc1O", "note": "[Positive drug, sulfasalazine]", "values": [{"measurement": "DAI comprehensive index inhibition rate (%)", "setting": "[1]", "value": "38.7^# %"}, {"measurement": "anti-IBD activity / colon tissue damage (in words)", "setting": "[2]; first experiment", "value": "effectively improve the colon tissue damage"}, {"measurement": "disease comprehensive index DAI score vs. model group (in words)", "setting": "[2]; first experiment", "value": "reduce the disease comprehensive index DAI score of the experimental animal significantly"}, {"measurement": "DAI comprehensive index inhibition rate (%)", "setting": "[2]; first experiment, 7 days of DSS modeling", "value": "23.08^# %"}, {"measurement": "histopathological score", "setting": "[2]; first experiment, 7 days of DSS modeling, lower is closer to normal", "value": "7.25 ± 2.14"}, {"measurement": "anti-IBD activity / colon tissue damage (in words)", "setting": "[2]; second experiment", "value": "slightly improve the colon tissue damage"}, {"measurement": "DAI composite index inhibition rate (%)", "setting": "[3]", "value": 50, "unit": "%"}, {"measurement": "histopathological score", "setting": "[3]", "value": "4.38 ± 0.42"}, {"measurement": "histopathological examination: cases with histological changes of the colon", "setting": "[4]; 600 mg/kg, model group 6 cases of 15", "value": "5 cases of 15 cases"}, {"measurement": "degree of colon histological lesions vs. model group", "setting": "[4]; [5]", "value": "significantly reduced compared with the model group"}, {"measurement": "symptoms of sparse stools and bloody stools during the administration period", "setting": "[4]; [5]", "value": "alleviated until disappeared"}, {"measurement": "DAI score value", "setting": "[4]; d6, 600 mg/kg intragastrically once a day for 5 days, p<0.05", "value": "lower"}, {"measurement": "CMDI score value", "setting": "[4]; d6, 600 mg/kg intragastrically once a day, p<0.05", "value": "lower"}]}
